Test results published in ChEMBL document CHEMBL1135863, “Antitumor agents. Part 215: antitubulin effects of cytotoxic B-ring modified allocolchicinoids” (Bioorg Med Chem Lett, 2002).

How the values were obtained:
1A9 = assay: Cytotoxicity against ovarian cancer cell line (1A-9) of humans was determined; assay type: functional, cell-based; conditions: Homo sapiens
A9 [1] = assay: Cytotoxicity against Beta- tubulin mutant expressing […] cell line of humans was tested; assay type: functional, cell-based; conditions: Homo sapiens
KB [2] = assay: The compound was tested for its cytotoxic concentration required to inhibit the replication of human tumor nasopharynx (KB-VIN) cell lines which is drug resistant; assay type: functional, cell-based
KB [3] = assay: The compound was tested for its cytotoxic concentration required to inhibit the replication of human tumor nasopharynx (KB) cell lines; assay type: functional, cell-based
A9 [4] = assay: Percentage inhibition at higher concentration (100 nM) against Beta- tubulin mutant expressing […] cell line; assay type: functional, Homo sapiens

SMILES	IC50 (1A9)	IC50 (A9 [1])	IC50 (KB [2])	IC50 (KB [3])	inhibition at 0.1 µM (A9 [4])
COc1ccc2c(c1)C=CCc1cc(OC)c(OC)c(OC)c1-2	60 nM	78 nM	68 nM	60 nM	–
COc1ccc2c(c1)[C@@H](NC(=O)CCl)CCc1cc(OC)c(OC)c(OC)c1-2	2.7 nM	13.8 nM	9.1 nM	12 nM	–
COc1ccc2c(c1)[C@@H]1O[C@@H]1Cc1cc(OC)c(OC)c(OC)c1-2	82 nM	> 100 nM	62 nM	62 nM	17%
COc1cc2c(c(OC)c1OC)-c1ccc(OC)c(=O)cc1[C@@H](NC(C)=O)CC2 [COLCHICINE]	11.9 nM	13.8 nM	> 100 nM	11.9 nM	–
